Like-named read-outs stand apart in the source and are kept apart here.
Columns and labels:
[1] = Tissue carotenoids by HPLC in 5×FAD mice; details: for Amount in brain tissues: 5×FAD mice fed Dunaliella algae diet vs regular diet, HPLC; for Accumulation in liver, fat and brain tissues: 5×FAD study, Dunaliella diet group vs control group
[2] = Tissue carotenoids by HPLC in Tg2576 mice; type: in vivo; details: Tg2576 study, mice fed Dunaliella diet vs control diet
From the text: In order to assess whether carotenoid level was higher in brain tissue of Tg2576 mice fed with the Dunaliella diet as compared to the control group, mice brain carotenoids were extracted and then measured using HPLC.

[3] = test system: blood brain barrier (BBB) in-vitro model (endothelial cells / glial cells); assay: In vitro blood brain barrier (BBB) cell culture model, HPLC of carotenoids; type: in vitro ADME, porcine brain endothelial cells, new born rat glial cells
Procedure: FIG. 5A-FIG. 5C: Schematic drawings of the in vitro blood brain barrier (BBB) cell culture system. The model consists of a monolayer of endothelial cells, forming tight junctions that are grown on a microporous membrane filter culture insert (luminal side) and glial cells seeded at the abluminal side of the filter. Low Density Lipoprotein (LDL, 100 μl 1,600 μg/ml) from a healthy volunteer is added to the luminal side. Cells are incubated for 24 hours and then samples are collected from the luminal and abluminal side and analyzed.
An in vitro model of the blood brain barrier (BBB) was used. The model consists of a monolayer of endothelial cells, obtained from primary cultures of endothelial cells established from freshly collected porcine brain forming tight junctions that are grown on a microporous membrane filter culture insert (the “Luminal side” in FIG. 6) and of a monolayer of glial cells extracted from new born rats' cortex that are seeded at the abluminal side of the filter (the “Abluminal side” in FIG. 6). Low density lipoprotein (LDL, 100 μl, 1,600 μg/ml from a healthy volunteer) was added to the luminal side. Cells were then incubated for 24 hours and thereafter samples were collected and analyzed using HPLC. The model was prepared by first seeding the glial cells on the abluminal side of a filter, a week later, the above-described endothelial cells were seeded on the luminal side of the filter and two days later LDL was added to the luminal side of the filter as indicated above.
LDL was obtained from healthy volunteers by sequential ultracentrifugation (density, 1.063 g/ml), and the concentration was determined by the Lowry method.
Using the “BBB in-vitro model” described above and schematically shown in FIG. 5A, 5B, 5C, glial and endothelial cells were incubated for 24 hours in the presence of LDL (inherently containing all-trans and 9-cis β-carotene) and then samples were collected and carotenoids were extracted and analyzed using HPLC.

[4] = carotenoids in human LDL added to luminal side, 24 hours incubation, HPLC

## CC1=C(/C=C/C(C)=C\C=C\C(C)=C\C=C\C=C(C)\C=C\C=C(C)\C=C\C2=C(C)CCCC2(C)C)C(C)(C)CCC1 [9-cis β Carotene, 9-cis β-carotene]
[1]
  Amount in brain tissues: significantly higher amounts
  Accumulation in liver, fat and brain tissues: much higher levels
[2]
  Tissue levels (liver, fat, brain): much higher levels
[3]; [4]
  Crossing of the BBB (luminal to abluminal side): crossed the BBB

## CC1=C(/C=C/C(C)=C/C=C/C(C)=C/C=C/C=C(C)/C=C/C=C(C)/C=C/C2=C(C)CCCC2(C)C)C(C)(C)CCC1 [all-trans β Carotene, all-trans β-carotene]
[1]
  Amount in brain tissues: significantly higher amounts
  Accumulation in liver, fat and brain tissues: much higher levels
[2]
  Tissue levels (liver, fat, brain): much higher levels
[3]; [4]
  Crossing of the BBB (luminal to abluminal side): crossed the BBB

## CC(C)=CCC/C(C)=C/C=C/C(C)=C/C=C/C(C)=C/C=C/C=C(C)/C=C/C=C(C)/C=C/C=C(\C)CCC=C(C)C [lycopene, reference compound]
[3]
  Crossing of the BBB (luminal to abluminal side): did not cross the BBB

Source: US20220175860A1, “DUNALIELLA ALGA PREPARATION FOR PREVENTION AND/OR TREATMENT OF A NEURODEGENERATIVE DISEASE, A DISORDER ASSOCIATED WITH PROTEIN MISFOLDING AND COGNITIVE DECLINE” (TEL HASHOMER MEDICAL RESEARCH INFRASTRUCTURE AND SERVICES …, priority 2019, published 2022)
